Data from publication PMC6001238, “Iterative Chemical Engineering of Vancomycin Leads to Novel Vancomycin Analogs With a High in Vitro Therapeutic Index” (Frontiers in Microbiology, 2018).
In brackets after ≈: the same amount, converted by molar mass.

Experiments:
E. faecalis VRE 6 = test: MIC, broth microdilution, vancomycin-resistant E. faecalis VRE 6 (VanA); assay type: cell-based, Enterococcus faecalis; conditions: for MIC: Enterococcus faecalis VRE 6 (vancomycin-resistant), read-out: MIC; for MIC-fold improvement vs. vancomycin: VRE 6, ratio of MIC of vancomycin and MIC of analogue
Summary of the method: (§1)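 Controls (ultrapure water; broth not inoculated) were included throughout CLSI-compliant broth microdilution. One condition supplemented analogue or comparator with 10 μM vancomycin, final level.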

[1] = test system: human cervix carcinoma (HeLa) cells; test: Cytostatic activity, HeLa cell proliferation; assay type: cell-based; conditions: mean ± SD of three experiments; highest concentration tested 250 µM; 4 days; read-out: Toxicity (IC50) HeLa
Summary of the method: (§2)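 Test compounds, serially diluted, received an equal volume of cell suspension at 300,000–500,000 cells/mL. After 37°C incubation (2 days for L1210, 3 for CEM, 4 for HeLa), cells were enumerated by Coulter counting and 50%-inhibitory concentrations calculated per cell type.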

MRSA KS1 = test: MIC, broth microdilution, MRSA KS1; assay type: cell-based, Staphylococcus aureus; conditions: for MIC-fold improvement vs. vancomycin: MRSA KS1, ratio of MIC of vancomycin and MIC of analogue; for MIC: Staphylococcus aureus MRSA KS1, read-out: MIC
Summary of the method: as §1

[2] = test system: Murine leukemia (L1210) cells; test: Cytostatic activity, L1210 cell proliferation; assay type: cell-based; conditions: mean ± SD of three experiments; highest concentration tested 250 µM; 2 days; read-out: Toxicity (IC50) L1210
Summary of the method: as §2

[3] = test system: L1210, CEM and HeLa cell lines; test: Cytostatic activity, average or summary over L1210, CEM and HeLa; assay type: cell-based; conditions: average of L1210, CEM and HeLa; read-out: Toxicity (IC50) Average
Summary of the method: as §2

E. faecalis VRE 53 = test: MIC, broth microdilution, vancomycin-resistant E. faecalis VRE 53 (VanA); assay type: cell-based, Enterococcus faecalis; conditions: for MIC: Enterococcus faecalis VRE 53 (vancomycin-resistant), read-out: MIC; for MIC-fold improvement vs. vancomycin: VRE 53, ratio of MIC of vancomycin and MIC of analogue
Summary of the method: as §1

[4] = test system: S. aureus VSSA (ATCC 6538); test: MIC, broth microdilution, vancomycin-sensitive S. aureus (VSSA/MSSA, ATCC 6538); assay type: cell-based, Staphylococcus aureus; conditions: for MIC: Staphylococcus aureus VSSA, read-out: MIC; for MIC-fold improvement vs. vancomycin: VSSA, ratio of MIC of vancomycin and MIC of analogue
Summary of the method: as §1

E. faecalis VSE 1 = test: MIC, broth microdilution, vancomycin-sensitive E. faecalis (VSE 1); assay type: cell-based, Enterococcus faecalis; conditions: for MIC: Enterococcus faecalis VSE 1 (vancomycin-sensitive), read-out: MIC; for MIC-fold improvement vs. vancomycin: VSE 1, ratio of MIC of vancomycin and MIC of analogue
Summary of the method: as §1

E. faecalis VRE 37 = test: MIC, broth microdilution, vancomycin-resistant E. faecalis VRE 37 (VanA); assay type: cell-based, Enterococcus faecalis; conditions: for MIC: Enterococcus faecalis VRE 37 (vancomycin-resistant), read-out: MIC; for MIC-fold improvement vs. vancomycin: VRE 37, ratio of MIC of vancomycin and MIC of analogue
Summary of the method: as §1

S. aureus VRSA = test: MIC, broth microdilution, vancomycin-resistant S. aureus (VRSA); assay type: cell-based, Staphylococcus aureus; conditions: for MIC: Staphylococcus aureus VRSA, read-out: MIC; for MIC-fold improvement vs. vancomycin: VRSA, ratio of MIC of vancomycin and MIC of analogue
Summary of the method: as §1

MRSA KS2 = test: MIC, broth microdilution, MRSA KS2; assay type: cell-based, Staphylococcus aureus; conditions: for MIC-fold improvement vs. vancomycin: MRSA KS2, ratio of MIC of vancomycin and MIC of analogue; for MIC: Staphylococcus aureus MRSA KS2, read-out: MIC
Summary of the method: as §1

MRSA KS6 = test: MIC, broth microdilution, MRSA KS6; assay type: cell-based, Staphylococcus aureus; conditions: for MIC-fold improvement vs. vancomycin: MRSA KS6, ratio of MIC of vancomycin and MIC of analogue; for MIC: Staphylococcus aureus MRSA KS6, read-out: MIC
Summary of the method: as §1

MRSA KS89 = test: MIC, broth microdilution, MRSA KS89; assay type: cell-based, Staphylococcus aureus; conditions: for MIC-fold improvement vs. vancomycin: MRSA KS8, ratio of MIC of vancomycin and MIC of analogue; for MIC: Staphylococcus aureus MRSA KS8, read-out: MIC
Summary of the method: as §1

E. faecalis VRE 29 = test: MIC, broth microdilution, vancomycin-resistant E. faecalis VRE 29 (VanA); assay type: cell-based, Enterococcus faecalis; conditions: for MIC: Enterococcus faecalis VRE 29 (vancomycin-resistant), read-out: MIC; for MIC-fold improvement vs. vancomycin: VRE 29, ratio of MIC of vancomycin and MIC of analogue
Summary of the method: as §1

S. aureus VISA/HIP5827 = test: MIC, broth microdilution, vancomycin-intermediate S. aureus VISA HIP5827; assay type: cell-based, Staphylococcus aureus; conditions: for MIC: Staphylococcus aureus VISA/HIP5827, read-out: MIC; for MIC-fold improvement vs. vancomycin: VISA/HIP5827, ratio of MIC of vancomycin and MIC of analogue
Summary of the method: as §1

[5] = test system: human T-lymphocyte (CEM) cells; test: Cytostatic activity, CEM cell proliferation; assay type: cell-based; conditions: mean ± SD of three experiments; highest concentration tested 250 µM; 3 days; read-out: Toxicity (IC50) CEM
Summary of the method: as §2

MIC (E. faecalis VRE 6) [µM]	MIC-fold improvement vs. vancomycin (E. faecalis VRE 6)	MIC-fold improvement vs. vancomycin (MRSA KS1)	MIC (MRSA KS1) [µM]	MIC (E. faecalis VRE 53) [µM]	MIC-fold improvement vs. vancomycin (E. faecalis VRE 53)	MIC [4] [µM]	MIC-fold improvement vs. vancomycin [4]	MIC (E. faecalis VSE 1) [µM]	MIC-fold improvement vs. vancomycin (E. faecalis VSE 1)	MIC (E. faecalis VRE 37) [µM]	MIC-fold improvement vs. vancomycin (E. faecalis VRE 37)	MIC (S. aureus VRSA) [µM]	MIC-fold improvement vs. vancomycin (S. aureus VRSA)	MIC-fold improvement vs. vancomycin (MRSA KS2)	MIC (MRSA KS2) [µM]	MIC-fold improvement vs. vancomycin (MRSA KS6)	SMILES	IC50 [1] [µM]	IC50 [2] [µM]	IC50 [3] [µM]	further results
12.5 (≈ 20.1 µg/mL)	16	2	0.39 (≈ 0.628 µg/mL)	12.5 (≈ 20.1 µg/mL)	32	0.39 (≈ 0.628 µg/mL)	2	0.39 (≈ 0.628 µg/mL)	4	3.13 (≈ 5.04 µg/mL)	256	3.13 (≈ 5.04 µg/mL)	32	4	0.20 (≈ 0.322 µg/mL)	2	CCc1ccc(NC(=O)CNC(=O)[C@H]2NC(=O)[C@H]3NC(=O)[C@H](NC(=O)[C@@H]4NC(=O)[C@H](CC(N)=O)NC(=O)[C@H](NC(=O)[C@@H](CC(C)C)NC)[C@H](O)c5ccc(c(Cl)c5)Oc5cc4cc(c5O[C@@H]4O[C@H](CO)[C@@H](O)[C@H](O)[C@H]4O[C@H]4C[C@](C)(N)[C@H](O)[C@H](C)O4)Oc4ccc(cc4Cl)[C@H]3O)c3ccc(O)c(c3)-c3c(O)cc(O)cc32)cc1 [Vanc-13]	149 ± 6	> 250	216	MIC (MRSA KS6): 0.39 µM (≈ 0.628 µg/mL); MIC-fold improvement vs. vancomycin (MRSA KS89): 2; MIC (MRSA KS89): 0.39 µM (≈ 0.628 µg/mL); MIC (E. faecalis VRE 29): 12.5 µM (≈ 20.1 µg/mL); MIC (S. aureus VISA/HIP5827): 0.39 µM (≈ 0.628 µg/mL); MIC-fold improvement vs. vancomycin (S. aureus VISA/HIP5827): 16; IC50 [5]: > 250 µM
3.13 (≈ 5.08 µg/mL)	64	1	0.78 (≈ 1.27 µg/mL)	25 (≈ 40.6 µg/mL)	16	0.78 (≈ 1.27 µg/mL)	1	1.56 (≈ 2.53 µg/mL)	1	25 (≈ 40.6 µg/mL)	16	12.5 (≈ 20.3 µg/mL)	8	1	0.78 (≈ 1.27 µg/mL)	0.5	CCc1cccc(C)c1NC(=O)CNC(=O)C1NC(=O)C2NC(=O)C(NC(=O)C3NC(=O)C(CC(N)=O)NC(=O)C(NC(=O)C(CC(C)C)NC)C(O)c4ccc(c(Cl)c4)Oc4cc3cc(c4OC3OC(CO)C(O)C(O)C3OC3CC(C)(N)C(O)C(C)O3)Oc3ccc(cc3Cl)C2O)c2ccc(O)c(c2)-c2c(O)cc(O)cc21 (centres unmarked) [Vanc-19]	63 ± 5	> 250	188	MIC (MRSA KS6): 1.56 µM (≈ 2.53 µg/mL); MIC-fold improvement vs. vancomycin (MRSA KS89): 1; MIC (MRSA KS89): 0.78 µM (≈ 1.27 µg/mL); MIC (E. faecalis VRE 29): 12.5 µM (≈ 20.3 µg/mL); MIC-fold improvement vs. vancomycin (E. faecalis VRE 29): 32; MIC (S. aureus VISA/HIP5827): 3.13 µM (≈ 5.08 µg/mL); MIC-fold improvement vs. vancomycin (S. aureus VISA/HIP5827): 2; IC50 [5]: > 250 µM
12.5 (≈ 21.7 µg/mL)	16	2	0.39 (≈ 0.677 µg/mL)	12.5 (≈ 21.7 µg/mL)	32	0.39 (≈ 0.677 µg/mL)	2	0.39 (≈ 0.677 µg/mL)	4	25 (≈ 43.4 µg/mL)	16	0.39 (≈ 0.677 µg/mL)	256	2	0.39 (≈ 0.677 µg/mL)	1	CN[C@H](CC(C)C)C(=O)N[C@H]1C(=O)N[C@@H](CC(N)=O)C(=O)N[C@H]2C(=O)N[C@H]3C(=O)N[C@H](C(=O)N[C@H](C(=O)NCC(=O)Nc4ccc(NS(=O)(=O)c5ccccc5)cc4)c4cc(O)cc(O)c4-c4cc3ccc4O)[C@H](O)c3ccc(c(Cl)c3)Oc3cc2cc(c3O[C@@H]2O[C@H](CO)[C@@H](O)[C@H](O)[C@H]2O[C@H]2C[C@](C)(N)[C@H](O)[C@H](C)O2)Oc2ccc(cc2Cl)[C@H]1O [Vanc-60]	75 ± 29	> 250	181	MIC (MRSA KS6): 0.78 µM (≈ 1.35 µg/mL); MIC-fold improvement vs. vancomycin (MRSA KS89): 2; MIC (MRSA KS89): 0.39 µM (≈ 0.677 µg/mL); MIC (E. faecalis VRE 29): 12.5 µM (≈ 21.7 µg/mL); MIC-fold improvement vs. vancomycin (E. faecalis VRE 29): 32; MIC (S. aureus VISA/HIP5827): 0.78 µM (≈ 1.35 µg/mL); MIC-fold improvement vs. vancomycin (S. aureus VISA/HIP5827): 8; IC50 [5]: 219 ± 44 µM
